Experimental data: US6579881B2 (Eisai Co., Ltd., priority 1997, dated 2003)
Where a name gives a salt, the structure may show the parent alone. Read-outs that look alike come from different tables or passages of the source.

Tests used:
[1] = biological target: T1, serotonin 1A receptor (Rattus norvegicus, UniProt P19327); assay: Binding test on [3H] 8-hydroxy-dipropylaminotetralin (serotonin 1A receptor); conditions: [3H] 8-OH-DPAT 0.5 nM, receptor fraction of rat hippocampus; read-out: 5HT1a
T1 construct: To the receptor fraction of the hippocampus were added a test compound and 0.5 nM of [^3H]; 8-hydroxy-dipropylaminotetralin; from tissue; host or cells: SD rat hippocampus, membrane (receptor) fraction
T1 sequence (P19327 1-422): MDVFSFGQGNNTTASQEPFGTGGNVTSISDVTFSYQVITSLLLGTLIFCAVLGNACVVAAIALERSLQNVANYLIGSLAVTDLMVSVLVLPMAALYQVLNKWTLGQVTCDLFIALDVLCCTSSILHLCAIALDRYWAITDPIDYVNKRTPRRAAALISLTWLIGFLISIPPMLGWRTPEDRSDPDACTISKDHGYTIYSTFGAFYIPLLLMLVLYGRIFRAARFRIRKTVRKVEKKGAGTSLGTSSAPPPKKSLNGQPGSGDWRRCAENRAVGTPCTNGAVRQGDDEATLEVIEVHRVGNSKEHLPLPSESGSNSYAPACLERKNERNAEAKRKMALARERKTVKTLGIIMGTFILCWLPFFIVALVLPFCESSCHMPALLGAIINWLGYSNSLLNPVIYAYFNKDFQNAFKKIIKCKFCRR

[2] = biological target: serotonin 2 receptor (Rattus norvegicus, UniProt P14842); assay: Binding test on [3H] ketanserin (serotonin 2 receptor); conditions: [3H] ketanserin 0.3 nM, receptor fraction of rat cerebral cortex; read-out: 5HT2
Sequence of serotonin 2 receptor (P14842 whole entry): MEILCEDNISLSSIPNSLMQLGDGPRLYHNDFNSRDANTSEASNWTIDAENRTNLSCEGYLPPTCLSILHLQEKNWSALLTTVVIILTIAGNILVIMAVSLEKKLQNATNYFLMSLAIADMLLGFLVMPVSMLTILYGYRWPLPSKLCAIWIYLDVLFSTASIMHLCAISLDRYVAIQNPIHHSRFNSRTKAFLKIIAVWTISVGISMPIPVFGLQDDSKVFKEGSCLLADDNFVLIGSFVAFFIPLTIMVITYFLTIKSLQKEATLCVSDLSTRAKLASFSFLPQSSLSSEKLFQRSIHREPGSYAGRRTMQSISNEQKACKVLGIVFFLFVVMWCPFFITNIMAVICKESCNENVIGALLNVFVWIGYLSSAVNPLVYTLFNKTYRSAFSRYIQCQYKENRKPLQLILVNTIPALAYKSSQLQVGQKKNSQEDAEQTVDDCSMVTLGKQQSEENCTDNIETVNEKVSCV
Method: Use was made of SD rats aged 6 to 8 weeks.
The rats were sacrificed by dcapitation to extirpate the cerebra.
The hippocampus was mixed with 50 times (on the wet weight basis) as much a 0.32 M sucrose solution while the cortex was mixed with 10 times as much the same solution. Each mixture was homogenized by using a Teflon glass homogenizer and centrifuged at 1,000×g for 10 min. The supernatant thus obtained was further centrifuged at 20,000×g for 20 min. The obtained precipitate was re-suspended in 50 times (based on the intial wet weight; in the case of the hippocampus) or 10 times (in the case of the cortex) as much a 50 mM Tris hydrochloride (pH 7.4) and incubated at room temperature for 30 min. After centrifuging at 20,000×g for 20 min, the obtained precipitate was further suspended and centrifuged twice each in the same manner. The precipitate thus obtained was suspended in 100 times (based on the initial wet weight; in the case of the hippocampus) or 20 times (in the case of the cortex) as much a 50 mM Tris hydrochloride solution (pH 7.4) to thereby give a receptor fraction. This receptor fraction was stored at −80° C. until using.
(Binding Test on [^3H] Ketanserin)
Next, it was filtered through a glass filter with the use of a cell harvester. After washing the glass filter with 50 mM Tris hydrochloride (pH 7.4), the radioactivity of the receptor was measured with a liquid scintillation counter. The binding detected in the presence of 1 μM of methysergide was referred to as the nonspecific binding.
IC50 was calculated by the probit method, while Ki was determined in accordance with the following formula:
wherein c represents the concentration of the radioisotope-labeled compound, and Kd represents the dissociation constant of the radioisotope-labeled compound with respect to the receptor determined by Scatchard's analysis.

[3] = biological target: α1 adrenalin receptor; assay: Binding test on [3H] prazosin (α1 adrenalin receptor); set-up: species or system rat
[4] = [3H] prazosin about 0.2 nM, receptor fraction of rat cerebral cortex

Structure (SMILES): COc1ccc(C(=O)c2ccc3ccn(C4CCN(CCc5ccc(F)cc5)CC4)c3c2)cn1 [Example 317, 1-[1-(4-fluorophenethyl)piperidin-4-yl]-6-(2-methoxypyridin-5-ylcarbonyl)indole Oxalate]
- Ki [1]: 0.76 nM
- Ki [2]: > 20 nM
- Ki [3, 4]: 400 nM

Structure (SMILES): O=C(Cc1ccc2ccn(C3CCN(CCc4ccc(F)cc4)CC3)c2c1)N(CCO)CCO [Example 303, 1-[1-(4-fluorophenethyl)piperidin-4-yl]-6-[bis(2-hydroxyethyl)]carbamoylmethylindole Oxalate]
- Ki [1]: 3.6 nM
- Ki [2]: 35.8 nM
- Ki [3, 4]: 307 nM

Structure (SMILES): O=C(CCO)NCc1ccc2ccn(C3CCN(CCc4ccc(F)cc4)CC3)c2c1 [Example 369, 1-[1-(4-fluorophenethyl)piperidin-4-yl]-6-(3-hydroxypropionylamino)methylindole]
- Ki [1]: 2.02 nM
- Ki [2]: 2.88 nM
- Ki [3, 4]: 121 nM

Structure (SMILES): CC1CN(C2CCN(CCc3ccc(F)cc3)CC2)c2ccccc21 (stereo not drawn) [Example 216, 1-[1-(4-fluorophenethyl)piperidin-4-yl]-3-methylindoline]
- Ki [1]: 4.7 nM
- Ki [2]: 42.9 nM
- Ki [3, 4]: 81.6 nM

Structure (SMILES): COc1ccc2c(c1)C(N1CCN(CCc3ccc(F)cc3)CC1)CC2 (stereo not drawn) [Example 250, 1-{4-[2-(4-fluorophenyl)ethyl]piperazin-1-yl}-6-methoxyindan Hydrochloride]
- Ki [1]: 1.6 nM
- Ki [2]: 18.8 nM
- Ki [3]: 263 nM

Structure (SMILES): Fc1ccc(CCN2CCN(C3CCCc4cnccc43)CC2)cc1 (stereo not drawn) [Example 283, 5-{4-[2-(4-fluorophenyl)ethyl]piperazin-1-yl}-5,6,7,8-tetrahydroisoquinoline Hydrochloride]
- Ki [1]: 39.5 nM
- Ki [2]: 40.9 nM
- Ki [3]: 197 nM

Structure (SMILES): O=C1NCCN1Cc1ccc2ccn(C3CCN(CCc4ccc(F)cc4)CC3)c2c1 [Example 355, 1-[1-(4-fluorophenethyl)piperidin-4-yl]-6-(2-imidazolidonyl)methylindole]
- Ki [1]: 0.35 nM
- Ki [2]: 6.87 nM
- Ki [3, 4]: 39.5 nM

Structure (SMILES): O=C(Cc1ccc2ccn(C3CCN(CCc4ccc(F)cc4)CC3)c2c1)NCC(O)CO (stereo not drawn) [Example 340, 1-[1-(4-fluorophenethyl)piperidin-4-yl]-6-(1,2-dihydroxypropan-3-yl)carbamoylmethylindole Oxalate]
- Ki [1]: 3.02 nM
- Ki [2]: 2.84 nM
- Ki [3, 4]: 340 nM

Structure (SMILES): CN(C)CC(=O)NCc1ccc2ccn(C3CCN(CCc4ccc(F)cc4)CC3)c2c1 [Example 375, 1-[1-(4-fluorophenethyl)piperidin-4-yl]-6-(N,N-dimethylaminoacetamido)methylindole]
- Ki [1]: 1.56 nM
- Ki [2]: 3.37 nM
- Ki [3, 4]: 61.4 nM

Structure (SMILES): COc1cccc(CCN2CCC(N3CCc4ccccc43)CC2)c1 [Example 19, 1-[1-(3-methoxyphenethyl)piperidin-4-yl]indoline]
- Ki [1]: 8.8 nM
- Ki [2]: 7 nM
- Ki [3, 4]: 55.5 nM

Structure (SMILES): CN(C)CCC(=O)NCc1ccc2ccn(C3CCN(CCc4ccc(F)cc4)CC3)c2c1 [Example 378, 1-[1-(4-fluorophenethyl)piperidin-4-yl]-6-(3-N,N-dimethylaminopropionyl)aminomethylindole]
- Ki [1]: 14.2 nM
- Ki [2]: 1.54 nM
- Ki [3, 4]: 43.7 nM

Structure (SMILES): CC(=O)NCc1ccc2c(C=O)cn(C3CCN(CCc4ccc(F)cc4)CC3)c2c1 [Example 370, 1-[1-(4-fluorophenethyl)piperidin-4-yl]-3-formyl-6-acetamidomethylindole]
- Ki [1]: > 20 nM
- Ki [2]: > 20 nM
- Ki [3, 4]: 256 nM

Structure (SMILES): O=C(Cc1ccc2ccn(C3CCN(CCc4ccc(F)cc4)CC3)c2c1)NCc1ccncc1 [Example 314, 1-[1-(4-fluorophenethyl)piperidin-4-yl]-6-(pyridin-4-yl)methylcarbamoylmethylindole]
- Ki [1]: 0.72 nM
- Ki [2]: 1.1 nM
- Ki [3, 4]: 51.3 nM

Structure (SMILES): CC(=O)NCc1ccc2c(CO)cn(C3CCN(CCc4ccc(F)cc4)CC3)c2c1 [Example 372, 1-[1-(4-fluorophenethyl)piperidin-4-yl]-3-hydroxymethyl-6-acetamidomethylindole]
- Ki [1]: > 20 nM
- Ki [2]: > 20 nM
- Ki [3, 4]: 206 nM
